In patent US9757428B2, “Designed peptides for tight junction barrier modulation” (University of Rochester, priority 2013, dated 2017):
Where no end group is shown, it is not given here.

Legend:
16HBE TJs [1] = assay: Transepithelial electrical resistance (TER) of 16HBE tight junction barrier, peptides applied apically; assay type: cell-based, Human; details: for effect of unrelated peptides on TER: 2-12 μM; for drop in TER: 2.4 μM peptide; for recovery of barrier function (TER) after peptide removal: 0.024 to 12 μM, washout and further 24 h incubation; for barrier disruption by labeled peptides, measured by decreased TER: representative experiment (n=2)
Method: Before use, peptide fibrils were prepared in sterile, filtered phosphate buffered saline containing 0.12% Pluronic F-127® by sonication at 55° C. for 20 minutes. Peptide concentrations were determined by BCA assay (Pierce). 20× peptide stocks were prepared in 0.12% pluronic F-127/PBS, then diluted 20× into phosphate buffer, PBS or DMEM containing 1% heat-inactivated fetal bovine serum and incubated at 37° C. for 18-24 hours before cell exposure or biophysical analysis, maintaining a constant surfactant concentration (0.006% Pluoronic® F127) for vehicle and peptide samples.
(§1) Human bronchial epithelial cells (16HBE) were grown on collagen-coated polystyrene in DMEM containing 10% heat inactivated fetal bovine serum, 10 mM HEPES, penicillin, streptomycin, and amphotericin with fresh media every 2-3 days. Cells were plated at the indicated density and grown for the indicated period. Peptides were diluted 20× into DMEM (Gibco #31053 containing 2 mM L-glutamine but lacking phenol red) containing 1% heat-inactivated fetal bovine serum and incubated at 37° C. for 18 hours before exposure. Pluronic F-127 concentrations (0.006% in cell culture media) were consistent between vehicle controls and peptide-containing samples. Cells were acclimated to the same media for 18 hours before peptide exposure.
(§2) For transepithelial electrical resistance (TER) and permeability experiments, the results of which are shown in FIGS. 4A-4B, respectively, cells were plated at a density of 75,000 per 0.33 cm^2 transwell (Corning TW, […], polyester) and grown for 5-6 days before acclimation/peptide exposure. TER measurements were taken with chopstick electrodes using a World Precision Instruments voltohmeter, and are expressed as the measured (cellular resistance—resistance of a TW insert with no cells)/surface area of the TW insert. TER was measured before peptide exposure (time=0) and at the indicated time points thereafter. After the 24 hour measurement, a control TW was lysed with 1% Triton X-100. For permeability flux assay, 1/10 volume of 0.2% sodium fluorescein or a mixture of 40 kD FITC-dextran (600 μg/mL final apical concentration) and Alexafluor®-568 labeled Synagis monoclonal antibody was added to the apical chamber and cells were incubated at 37° C. for 30 minutes or 18 hours. Synagis monoclonal antibody was labeled with Alexafluor®-568-succinimidyl ester according to the manufacturer's instructions, unreacted fluorophor removed using centrifugal filtration, and labeled antibody resuspended in PBS containing FITC-labeled 40 kD dextran. Fluorescence in the basolateral media was read in a Tecan M1000 fluorescence plate reader using Greiner μ-clear bottom 384-well plates (λex=494 nm and λem=512 nm for fluorescein and FITC-dextran and λex=578 nm and λem=605 nm for Alexafluor®-568 using a 10 nm slit width). Error is presented as the standard error of the mean, and significance relative to the vehicle control indicated where P<0.05 using a two-tailed t-test. For TER and fluorescein permeability experiments, n=8. For barrier recovery after peptide washout and FD-40 and Alexafluor®-labeled monoclonal antibody (“AF-mAb”) permeability, n=4.
Human bronchial epithelial cells (16HBE) were used to model TJ barrier function. 16HBE cells develop a TJ barrier (transepithelial electrical resistance, TER=800-1500 Ω*cm^2 in 10% heat-inactivated calf serum) that persists for 14 days. 16HBE cells serve as a more robust epithelial TJ barrier model than primary human keratinocytes, which achieve varying degrees of terminal differentiation (e.g. TJ barrier function) and this declines within 24 hours. In the low serum media used for peptide exposure, 16HBE cells achieved 350-500 Ω*cm^2 TER which was stable for 3-4 days. Cell surface expression of Cldn1, Cldn4, Ocln, and ZO-1 were consistently observed by immunofluorescence staining (FIGS. 2A-2B).

[2] = for comparison; cited from earlier work
16HBE TJs [3] = assay: Permeability flux assay (sodium fluorescein, FITC-dextran FD-40, labeled Synagis mAb) across 16HBE cultures; assay type: cell-based, Human; details: for increase in FITC-dextran 40 kDa (FD-40) permeability / increase in fluorescein (0.4 kDa) permeability: 24 hours exposure, relative to vehicle
Method: as §1, §2

[4] = test system: influenza hemagglutinin (HA); assay: Intranasal immunization with influenza hemagglutinin (HA); details: mice; for serum antibody titers to HA: day 18, 28 and 35; for HA-specific antibodies (IgG and IgA) in bronchial lavage: day 48
Method: Immunization experiments with influenza hemagglutinin were carried out as follows. Mice (4 mice per group) were treated in the nasal cavity with vehicle alone (0.006% Pluronic F127 in saline), vehicle plus influenza hemagglutinin (HA), or vehicle plus HA plus a permeabilizing agent (peptides 1A or 2A, or semen-derived enhancer of virus infection (SEVI)). Antibody titers to HA in serum were assessed at day 18, 28, and 35 after treatment, and HA-specific IgG and IgA were determined in bronchial lavage at day 48 post treatment.

16HBE cells = assay: WST1 cytotoxicity assay in 16HBE cells; assay type: cell-based, Human; details: for WST1 metabolism (cytotoxicity) of equilibrated peptides: 16HBE sub-confluent, 0.024-12 μM, 1, 4, 12 or 24 hour exposure; for concentration of freshly diluted peptide at which cytotoxicity was observed (WST1): 16HBE, stocks diluted and added without incubation, 12 h exposure
Method: For cytotoxicity measurements, cells were plated with a density of 7,500 per well in a 96-well plate and grown for one day before acclimation in DMEM containing 1% heat-inactivated fetal bovine serum. Cells were exposed to vehicle or peptide for 4, 12 or 24 hours. Control cells were lysed with 1% Triton X-100 for 15 minutes as a negative control. 10× WST1 stock (Clontech) was added to each well, and cells incubated for 12 minutes at 37° C. Media was removed and WST1 absorbance immediately read on a Perkin Elmer UV/Vis plate reader (WST1 A450−background A620). Error is presented as the standard error of the mean, and significance relative to the untreated control indicated (P<0.05). For cytotoxicity experiments, n=4. Representative data is presented.

[5] = test system: Cldn1 and Ocln localization in 16HBE cultures; assay: Immunofluorescence of TJ proteins (Cldn1, Ocln) and labeled peptides in 16HBE cultures; assay type: cell-based, Human; details: for Cldn1 and Ocln localization: 12 hours after exposure; for co-localization of labeled peptide with endogenous Cldn1: 2.4 μM, 4 hours exposure
Method: For immunohistochemical labeling, cells were plated at a density of 1.2×10^5 cells per 1.2 cm^2 coverslip in a 12-well plate and cultured in DMEM containing 10% heat-inactivated fetal bovine serum for 4-5 days. One day before peptide exposure, media was changed to DMEM/1% serum. Cells were exposed to peptide for 4 or 12 hours at 37° C. Cover slips were washed three times with PBS containing calcium (Gibco), fixed in cold methanol and blocked with 1% bovine serum albumin before staining Fluorophor was conjugated to propargyl-glycine labeled peptides using a ClickIt EdU kit according to the manufacturer's instructions (omitting cell exposure to EdU). For immunofluorescent staining, cells were incubated for one hour with primary antibodies (1:500 polyclonal anti-claudin 1 antibody and 1:400 monoclonal anti-occludin), washed with PBS and stained with Alexafluor®-488 anti-rabbit and Alexafluor®-568 anti-mouse secondary antibodies (1:1000). […] Coverslips were mounted in Vectastain containing DAPI and imaged on an Olympus BX60 fluorescence microscope. Cldn1 and Ocln images were taken using SPOT software with no further digital manipulation.

nasal cavity = assay: Luciferase permeability experiment in mouse nasal cavity; assay type: in vivo; details: mice, intranasal peptide, luciferase applied after 12 or 24 hours
Method: Luciferase permeability experiments were carried out as follows. […] After 12 or 24 hours, a solution of 10 micrograms luciferase was applied. Mice were then imaged at various time points to determine the amount of luciferase remaining in the nasal cavity.

[6] = test system: Caco-2, HEK-293, and rat perineural TJ barriers; details: Caco-2, HEK-293, rat perineural in vivo; cited from earlier work
[7] = test system: T84 (transplantable human carcinoma) cells; details: cited from earlier work

In the case of “Aβ40: unrelated peptide tested in the same concentration range [reference compound]”, the “effect of unrelated peptides on TER” value (16HBE TJs [1]; 16HBE) is reported as “did not decrease TER”.

In the case of “Aβ42: Amyloid Beta-Peptide 1-42 [reference compound]”, the TJ disruption (16HBE TJs [1]; 2.4 μM) is given as “disrupt TJs, but to a lesser extent than peptides 1a and 2a” and the “critical concentration (Cr)” value [2] is given as “about 1 μM”.

For “FKFEFKFE-NH2 [(FKFE)2, unrelated peptide tested in the same concentration range, reference compound]”, the “effect of unrelated peptides on TER” value (16HBE TJs [1]; 16HBE) was “did not decrease TER”.

For “H-SILTGVSTLDQSLKQLSNFSQAVSTQSSR-NH2 [Peptide 2a]”, the “enhancement of labeled therapeutic antibody (Synagis, 168 kD) penetration” value (shortened to “enhancement”) (16HBE TJs [3]; 2.4 μM peptide) was 4.9±0.4 fold, the “increase in FITC-dextran 40 kDa (FD-40) permeability” value (from here on “increase in FITC-dextran 40 kDa”) (16HBE TJs [3]; 2.4 μM peptide) was 25.3±1.6 fold and the “increase in fluorescein (0.4 kDa) permeability” value (“increase in fluorescein” below) (16HBE TJs [3]; 2.4 μM peptide) was 5.6±0.4 fold. For the same substance, the “enhancement” value (16HBE TJs [3]; 12 μM peptide) was 5.6±0.9 fold, the “increase in FITC-dextran 40 kDa” value (16HBE TJs [3]; 12 μM peptide) was 30.5±3.0 fold and the “increase in fluorescein” value (16HBE TJs [3]; 12 μM peptide) was 16.4±2.2 fold. For the same substance, the “drop in TER” value (16HBE TJs [1]; 16HBE, 24 hours) was 80±2.4%, the “decrease in TER” value (16HBE TJs [1]; 16HBE, 12 μM peptide, 24 hours) was 92±1.6% and the “recovery of barrier function (TER) after peptide removal” value (16HBE TJs [1]; 16HBE) was “barrier function recovers”. The “serum antibody titers to HA” value [4] was “trend of enhancement”, the “HA-specific antibodies (IgG and IgA) in bronchial lavage” value [4] was “trend of enhancement” and the “WST1 metabolism (cytotoxicity) of equilibrated peptides” value (16HBE cells) was “No alterations in WST1 metabolism”. The “concentration of freshly diluted peptide at which cytotoxicity was observed (WST1)” value (16HBE cells) was 200 nM and the “Cldn1 and Ocln localization” value [5] was “disturbed”.

In the case of “H-SSVSQSTGQIQSKVFDSLLNLSSTLQATR-NH2 [Peptide 1a]”, the “enhancement” value (16HBE TJs [3]; 2.4 μM peptide) is reported as 2.5±0.2 fold, the “increase in FITC-dextran 40 kDa” value (16HBE TJs [3]; 2.4 μM peptide) is reported as 11.2±0.9 fold and the “increase in fluorescein” value (16HBE TJs [3]; 2.4 μM peptide) is reported as 4.1±0.9 fold. For the same substance, the “enhancement” value (16HBE TJs [3]; 12 μM peptide) was 3.2±0.4 fold, the “increase in FITC-dextran 40 kDa” value (16HBE TJs [3]; 12 μM peptide) was 16.8±1.9 fold and the “increase in fluorescein” value (16HBE TJs [3]; 12 μM peptide) was 6.7±1.3 fold. The “luciferase lost from the nasal cavity” value (nasal cavity) was “trend of higher amounts of luciferase lost from the nasal cavity”, the “drop in TER” value (16HBE TJs [1]; 16HBE, 24 hours) was 65.9±6.9% and the “time to statistically significant (P<0.05) decrease in TER” value (16HBE TJs [1]; 16HBE, 12 μM peptide) was no more than 8 h. The “recovery of barrier function (TER) after peptide removal” value (16HBE TJs [1]; 16HBE) was “barrier function recovers”, the “lowest concentration giving a statistically significant (P<0.05) decrease in TER” value (16HBE TJs [1]; 16HBE, by 24 hours) was 240 nM and the “serum antibody titers to HA” value [4] was “trend of enhancement”. The “HA-specific antibodies (IgG and IgA) in bronchial lavage” value [4] was “trend of enhancement”, the “WST1 metabolism (cytotoxicity) of equilibrated peptides” value (16HBE cells) was “No alterations in WST1 metabolism” and the “concentration of freshly diluted peptide at which cytotoxicity was observed (WST1)” value (16HBE cells) was 1200 nM. For the same substance, the “Cldn1 and Ocln localization” value [5] was “disturbed”.

In the case of “Rat Cldn1 (53-81, C54,64S) peptide: rat claudin-1 peptide with Cys to Ser, of Zwanziger et al. (SSVSQSTGQIQSKVFDSLLNLNSTLQATR; UniProt P56745 53-81, looked up, variant C54S C64S)”, the “concentration disrupting TJ barriers” value [6] is listed as 200 to 300 µM.

With “SILTGVSTLDQSLKQLSNFSQAVSTQSSR [Peptide 2b, labeled scrambled peptide 2 with N-terminal biotin-N-propargyl glycine tag]” the “barrier disruption by labeled peptides, measured by decreased TER” value (16HBE TJs [1]; 16HBE) was “cause disruption of barrier” and the “co-localization of labeled peptide with endogenous Cldn1” value [5] was “co-localize with endogenous Cldn1”.

In the case of “SSVSQSTGQIQSKVFDSLLNLSSTLQATR [Peptide 1b, labeled peptide 1 with N-terminal biotin-N-propargyl glycine tag]”, the “barrier disruption by labeled peptides, measured by decreased TER” value (16HBE TJs [1]; 16HBE) is reported as “cause disruption of barrier” and the “co-localization of labeled peptide with endogenous Cldn1” value [5] is reported as “co-localize with endogenous Cldn1”.

In the case of “rat Cldn1 (53-80) peptide: rat claudin-1 extracellular loop peptide of Mrsny et al. (SCVSQSTGQIQCKVFDSLLNLNSTLQAT; UniProt P56745 53-80, looked up, fragment)”, the “concentration able to disrupt intact TJs” value [7] is given as 200 µM and the “concentration shown to inhibit calcium-induced TJ formation” value [7] is given as 25 µM.
